Values joined by “and” are separate entries in the source; they are usually repeats but may differ in a detail not shown here. Equal values may be shown once. Read-outs that look alike come from different tables or passages of the source.
Experiments:
tyrosinase = test: spectrophotometric tyrosinase inhibition assay with L-DOPA as substrate; assay type: biochemical, Bacillus subtilis NCTC 10400; details: for %Age Inhibition: test concentration not given
Protocol: The synthesized coumarin–triazole hybrids were subjected to spectrophotometric assay for tyrosinase by employing […]. The tyrosine enzyme was extracted from Bacillus subtilis NCTC 10400. The anti-tyrosinase potential of all the coumarin–triazole hybrids was screened by using L-DOPA (levodopa) as the substrate. All the coumarin derivatives were dissolved in DMSO. […] The coumarin derivatives along with the tyrosine enzyme (0.5 mg/mL) were pre-incubated for 10 min in buffer at 25 °C. Pre-incubation of tyrosinase and coumarin derivative was followed by the addition of levodopa (0.5 mM), and the reaction was monitored by absorbance measurement at 475 nm. The IC50 values were calculated by interpolation of the dose–response curves. The following formula was applied to calculate the percentage inhibition of tyrosinase:%age Inhibition = (B − S/B) × 100 where S and B are the absorbance values for the sample and blank, respectively.

[1] = L-DOPA 0.5 mM, pH 6.8, 25 °C, means ± SEs (n = 3), read-out: IC50
[2] = L-DOPA substrate, unit inferred, read-out: IC50 (unit inferred)

Row | Structure (SMILES) | IC50 (tyrosinase; [1]) | %Age Inhibition (tyrosinase; L-DOPA 0.5 mM, pH 6.8, 25 °C) | IC50 (tyrosinase; [2]) | melting point
1 | COc1cccc2cc(-c3nnc(SCC(=O)Oc4ccc5c(C)cc(=O)oc5c4)n3-c3ccccc3)oc12 [Compound 17b, 4-Methyl-2-oxo-2H-chromen-7-yl-2-((5-(7-methoxybenzofuran-2-yl)-4-phenyl-4H-1,2,4-triazol-3-yl)thio)acetate] | 14.1 ± 0.17 µM | 6.3009 ± 0.14% and 6.30 ± 0.14% | 14.1 ± 0.17 µM | 140 °C
2 | Cc1cc(=O)oc2cc(OC(=O)CSc3nnc(-c4cc5cc(Br)ccc5o4)n3-c3ccccc3)ccc12 [Compound 17d, 4-Methyl-2-oxo-2H-chromen-7-yl-2-((5-(5-bromobenzofuran-2-yl)-4-phenyl-4H-1,2,4-triazol-3-yl)thio)acetate] | 5.89 ± 0.09 µM | 23.097 ± 0.13% and 23.09 ± 0.13% | 5.89 ± 0.09 µM | 232 °C
3 | COc1ccc(-n2c(SCC(=O)Oc3ccc4c(C)cc(=O)oc4c3)nnc2-c2cc3cccc(OC)c3o2)cc1 [Compound 17c, 4-Methyl-2-oxo-2H-chromen-7-yl-2-((5-(7-methoxybenzofuran-2-yl)-4-(4-methoxyphenyl)-4H-1,2,4-triazol-3-yl)thio)acetate] | 13 ± 0.32 µM | 5.11 ± 0.15% | 13 ± 0.32 µM | 137 °C
4 | Cc1cc(=O)oc2cc(OC(=O)CSc3nnc(-c4cc5ccccc5o4)n3-c3ccccc3)ccc12 [Compound 17a, 4-Methyl-2-oxo-2H-chromen-7-yl-2-((5-(benzofuran-2-yl)-4-phenyl-4H-1,2,4-triazol-3-yl)thio)acetate] | 8.13 ± 0.13 µM | 12.023 ± 0.21% and 12.02 ± 0.21% | 8.14 ± 0.13 µM | 152 °C

Now from value to compound:

Row | IC50 (tyrosinase; [1]) | %Age Inhibition (tyrosinase; L-DOPA 0.5 mM, pH 6.8, 25 °C) | IC50 (tyrosinase; [2]) | melting point | Structure (SMILES)
5 | 3.98 µM | 31.0609 ± 0.19% and 31.060 ± 0.19% | 3.98 ± 0.12 µM | 200 °C | COc1ccc(-n2c(SCC(=O)Oc3ccc4c(C)cc(=O)oc4c3)nnc2-c2cc3cc(Cl)ccc3o2)cc1 [Compound 17g, 4-Methyl-2-oxo-2H-chromen-7-yl2-((5-(5-chlorobenzofuran-2-yl)-4-(4-methoxyphenyl)-4H-1,2,4-triazol-3-yl)thio)acetate]
6 | 3.15 µM and 3.14 µM | 36.134 ± 0.21% and 36.13 ± 0.21% | 3.15 ± 0.23 µM | 226 °C | Cc1cc(=O)oc2cc(OC(=O)CSc3nnc(-c4cc5cc(Cl)ccc5o4)n3-c3ccccc3)ccc12 [Compound 17f, 4-Methyl-2-oxo-2H-chromen-7-yl-2-((5-(5-chlorobenzofuran-2-yl)-4-phenyl-4H-1,2,4-triazol-3-yl)thio)acetate]
7 | – | 6.79 ± 0.58% | – | – | O=c1cc(CO)occ1O [Kojic acid, reference compound]
8 | 5.13 ± 0.05 µM | 30.62 ± 0.33% | – | – | Cc1cc(=O)oc2cc(OC(=O)CSc3nnc(-c4cc5c(ccc6ccccc65)o4)n3-c3ccccc3)ccc12 [Compound 17h, 4-Methyl-2-oxo-2H-chromen-7-yl-2-((5-(naphtho[2,1-b]furan-2-yl)-4-phenyl-4H-1,2,4-triazol-3-yl)thio)acetate]
9 | 0.339 µM and 0.33 µM | 30.85 ± 0.15% | 0.339 ± 0.08 µM | 220 °C | COc1ccc(-n2c(SCC(=O)Oc3ccc4c(C)cc(=O)oc4c3)nnc2-c2cc3cc(Br)ccc3o2)cc1 [Compound 17e, 4-Methyl-2-oxo-2H-chromen-7-yl-2-((5-(5-bromobenzofuran-2-yl)-4-(4-methoxyphenyl)-4H-1,2,4-triazol-3-yl)thio)acetate]
